ChEMBL document CHEMBL3580659, “One-pot multicomponent synthesis of indole incorporated thiazolylcoumarins and their antibacterial, anticancer and DNA cleavage studies” (2015)

Key:
Format in all cases: functional
[1] = system: HL-60(TB); assay: Cytotoxicity against human HL-60(TB) cells after 48 hrs by sulforhodamine B assay; conditions: HL-60, 48 h
[2] = system: T47D; assay: Cytotoxicity against human T47D cells assessed as cell growth level at 1 uM after 48 hrs by sulforhodamine B assay
[3] = system: SW-620; assay: Cytotoxicity against human SW620 cells assessed as cell growth level at 1 uM after 48 hrs by sulforhodamine B assay
[4] = system: U-251; assay: Cytotoxicity against human U251 cells assessed as cell growth level at 10 uM after 48 hrs by sulforhodamine B assay
[5] = system: LOX IMVI; assay: Cytotoxicity against human LOXIMVI cells assessed as cell growth level at 100 nM after 48 hrs by sulforhodamine B assay
[6] = system: HCC 2998; assay: Cytotoxicity against human HCC2998 cells assessed as cell growth level at 10 nM after 48 hrs by sulforhodamine B assay
[7] = system: M14; assay: Cytotoxicity against human M14 cells assessed as cell growth level at 100 uM after 48 hrs by sulforhodamine B assay
[8] = system: COLO 205; assay: Cytotoxicity against human COLO205 cells after 48 hrs by sulforhodamine B assay; conditions: COLO 205, 48 h
[9] = system: HL-60(TB); assay: Cytotoxicity against human HL-60(TB) cells assessed as cell growth level at 100 uM after 48 hrs by sulforhodamine B assay
[10] = system: NCI-H522; assay: Cytotoxicity against human NCI-H522 cells assessed as cell growth level at 1 uM after 48 hrs by sulforhodamine B assay
[11] = system: A549; assay: Cytotoxicity against human A549/ATCC cells assessed as cell growth level at 1 uM after 48 hrs by sulforhodamine B assay
[12] = system: M14; assay: Cytotoxicity against human M14 cells assessed as cell growth level at 1 uM after 48 hrs by sulforhodamine B assay
[13] = system: UACC-257; assay: Cytotoxicity against human UACC257 cells assessed as cell growth level at 1 uM after 48 hrs by sulforhodamine B assay
[14] = system: KM12; assay: Cytotoxicity against human KM12 cells assessed as cell growth level at 1 uM after 48 hrs by sulforhodamine B assay
[15] = system: COLO 205; assay: Cytotoxicity against human COLO205 cells assessed as cell growth level at 1 uM after 48 hrs by sulforhodamine B assay
[16] = system: IGROV-1; assay: Cytotoxicity against human IGROV1 cells assessed as cell growth level at 100 nM after 48 hrs by sulforhodamine B assay
[17] = system: CAKI-1; assay: Cytotoxicity against human CAKI-1 cells assessed as cell growth level at 10 uM after 48 hrs by sulforhodamine B assay
[18] = system: RPMI-8226; assay: Cytotoxicity against human RPMI8226 cells assessed as cell growth level at 10 uM after 48 hrs by sulforhodamine B assay
[19] = system: 786-0; assay: Cytotoxicity against human 786-0 cells assessed as cell growth level at 100 uM after 48 hrs by sulforhodamine B assay
[20] = system: OVCAR-8; assay: Cytotoxicity against human OVCAR8 cells assessed as cell growth level at 1 uM after 48 hrs by sulforhodamine B assay
[21] = system: MCF7; assay: Cytotoxicity against human MCF7 cells assessed as cell growth level at 10 nM after 48 hrs by sulforhodamine B assay
[22] = system: BT-549; assay: Cytotoxicity against human BT549 cells after 48 hrs by sulforhodamine B assay; conditions: BT-549, 48 h
[23] = system: IGROV-1; assay: Cytotoxicity against human IGROV1 cells after 48 hrs by sulforhodamine B assay; conditions: IGROV-1, 48 h
[24] = system: SNB-19; assay: Cytotoxicity against human SNB19 cells assessed as cell growth level at 10 nM after 48 hrs by sulforhodamine B assay
[25] = system: Malme-3M; assay: Cytotoxicity against human MALME-3M cells assessed as cell growth level at 100 uM after 48 hrs by sulforhodamine B assay
[26] = system: BT-549; assay: Cytotoxicity against human BT549 cells assessed as cell growth level at 100 nM after 48 hrs by sulforhodamine B assay
[27] = system: OVCAR-8; assay: Cytotoxicity against human OVCAR8 cells assessed as cell growth level at 100 nM after 48 hrs by sulforhodamine B assay
[28] = system: OVCAR-4; assay: Cytotoxicity against human OVCAR4 cells after 48 hrs by sulforhodamine B assay; conditions: OVCAR-4, 48 h
[29] = system: HL-60(TB); assay: Cytotoxicity against human HL-60(TB) cells assessed as cell growth level at 10 nM after 48 hrs by sulforhodamine B assay
[30] = system: HCT-15; assay: Cytotoxicity against human HCT15 cells assessed as cell growth level at 100 uM after 48 hrs by sulforhodamine B assay
[31] = system: A549; assay: Cytotoxicity against human A549/ATCC cells assessed as cell growth level at 100 uM after 48 hrs by sulforhodamine B assay
[32] = system: HCC 2998; assay: Cytotoxicity against human HCC2998 cells assessed as cell growth level at 100 uM after 48 hrs by sulforhodamine B assay
[33] = system: IGROV-1; assay: Cytotoxicity against human IGROV1 cells assessed as cell growth level at 100 uM after 48 hrs by sulforhodamine B assay
[34] = system: IGROV-1; assay: Cytotoxicity against human IGROV1 cells assessed as cell growth level at 10 nM after 48 hrs by sulforhodamine B assay
[35] = system: U-251; assay: Cytotoxicity against human U251 cells assessed as cell growth level at 10 nM after 48 hrs by sulforhodamine B assay
[36] = system: NCI-H23; assay: Cytotoxicity against human NCI-H23 cells assessed as cell growth level at 100 uM after 48 hrs by sulforhodamine B assay
[37] = system: NCI-H226; assay: Cytotoxicity against human NCI-H226 cells assessed as cell growth level at 10 nM after 48 hrs by sulforhodamine B assay
[38] = system: CCRF-CEM; assay: Cytotoxicity against human CCRF-CEM cells assessed as cell growth level at 100 nM after 48 hrs by sulforhodamine B assay
[39] = system: OVCAR-3; assay: Cytotoxicity against human OVCAR3 cells after 48 hrs by sulforhodamine B assay; conditions: OVCAR-3, 48 h
[40] = read-out: LC50 (the source's name)
[41] = read-out: pLC50 (the source's name) (converted)

`O=c1oc2ccccc2cc1-c1csc(N/N=C/c2c[nH]c3ccccc23)n1` was tested. Which GI50 ([1]; read-out: GI50) did it give?
Its GI50 is 0.45 µM.

And the CC50 [1, 40]?
The CC50 was over 100 µM.

What about the TGI ([1]; read-out: TGI) of the same compound?
The TGI was 7.64 µM.

What about the GI50 ([1]; read-out: pGI50 (converted)) of the same compound?
Its GI50 is 0.457 µM.

What about the CC50 [1, 41] of the same compound?
The CC50 was over 100 µM.

What about the TGI ([1]; read-out: pTGI (converted)) of the same compound?
The TGI was 7.59 µM.

What about the Activity [2] of the same compound?
The Activity was 81%.

And the Activity [3]?
Its Activity is 72%.

And the Activity [4]?
Its Activity is -6.38%.

What about the Activity [5] of the same compound?
Its Activity is 92%.

And the Activity [6]?
Its Activity is 99%.

And the Activity [7]?
The Activity was -77%.

What about the GI50 ([8]; read-out: GI50) of the same compound?
The GI50 was 1.92 µM.

And the LC50 (concentration killing 50% of cells) ([8]; read-out: LC50)?
Its LC50 (concentration killing 50% of cells) is 6.55 µM.

What about the TGI ([8]; read-out: TGI) of the same compound?
The TGI was 3.55 µM.

What about the GI50 ([8]; read-out: pGI50 (converted)) of the same compound?
The GI50 was 1.91 µM.

What about the LC50 (concentration killing 50% of cells) ([8]; read-out: pLC50 (converted)) of the same compound?
Its LC50 (concentration killing 50% of cells) is 6.61 µM.

And the TGI ([8]; read-out: pTGI (converted))?
The TGI was 3.55 µM.

What about the Activity [9] of the same compound?
Its Activity is -23%.

What about the Activity [10] of the same compound?
Its Activity is 103%.

What about the Activity [11] of the same compound?
Its Activity is 68%.

What about the Activity [12] of the same compound?
The Activity was 89%.

What about the Activity [13] of the same compound?
The Activity was 82%.

And the Activity [14]?
Its Activity is 95%.

And the Activity [15]?
Its Activity is 109%.

And the Activity [16]?
The Activity was 107%.

What about the Activity [17] of the same compound?
The Activity was -41.32%.

What about the Activity [18] of the same compound?
Its Activity is -33.83%.

What about the Activity [19] of the same compound?
The Activity was -27%.

And the Activity [20]?
Its Activity is 94%.

And the Activity [21]?
Its Activity is 98%.

What about the GI50 ([22]; read-out: GI50) of the same compound?
The GI50 was 1.13 µM.

And the CC50 [22, 40]?
Its CC50 is 5.22 µM.

And the TGI ([22]; read-out: TGI)?
Its TGI is 2.43 µM.

What about the GI50 ([22]; read-out: pGI50 (converted)) of the same compound?
The GI50 was 1.12 µM.

And the CC50 [22, 41]?
The CC50 was 5.25 µM.

What about the TGI ([22]; read-out: pTGI (converted)) of the same compound?
Its TGI is 2.45 µM.

And the GI50 ([23]; read-out: GI50)?
Its GI50 is 1.54 µM.

What about the CC50 [23, 40] of the same compound?
The CC50 was over 100 µM.

And the TGI ([23]; read-out: TGI)?
Its TGI is 4.7 µM.

And the GI50 ([23]; read-out: pGI50 (converted))?
The GI50 was 1.55 µM.

And the CC50 [23, 41]?
Its CC50 is over 100 µM.

What about the TGI ([23]; read-out: pTGI (converted)) of the same compound?
The TGI was 4.68 µM.

What about the Activity [24] of the same compound?
The Activity was 91%.

What about the Activity [25] of the same compound?
The Activity was -67%.

And the Activity [26]?
The Activity was 88%.

What about the Activity [27] of the same compound?
The Activity was 107%.

And the GI50 ([28]; read-out: GI50)?
Its GI50 is 1.37 µM.

What about the CC50 [28, 40] of the same compound?
Its CC50 is over 100 µM.

And the TGI ([28]; read-out: TGI)?
The TGI was 5.87 µM.

What about the GI50 ([28]; read-out: pGI50 (converted)) of the same compound?
The GI50 was 1.38 µM.

And the CC50 [28, 41]?
Its CC50 is over 100 µM.

What about the TGI ([28]; read-out: pTGI (converted)) of the same compound?
The TGI was 5.89 µM.

What about the Activity [29] of the same compound?
The Activity was 92%.

And the Activity [30]?
The Activity was -48%.

What about the Activity [31] of the same compound?
The Activity was -29%.

And the Activity [32]?
Its Activity is -92%.

What about the Activity [33] of the same compound?
Its Activity is -71%.

What about the Activity [34] of the same compound?
The Activity was 108%.

What about the Activity [35] of the same compound?
Its Activity is 100%.

And the Activity [36]?
The Activity was -17%.

What about the Activity [37] of the same compound?
The Activity was 98%.

What about the Activity [38] of the same compound?
The Activity was 98%.

And the GI50 ([39]; read-out: GI50)?
The GI50 was 1.16 µM.

And the CC50 [39, 40]?
Its CC50 is 7.31 µM.

And the TGI ([39]; read-out: TGI)?
Its TGI is 2.91 µM.

And the GI50 ([39]; read-out: pGI50 (converted))?
Its GI50 is 1.15 µM.

What about the CC50 [39, 41] of the same compound?
Its CC50 is 7.24 µM.

And the TGI ([39]; read-out: pTGI (converted))?
The TGI was 2.88 µM.
